Experimental data taken from ChEMBL document CHEMBL1155112, “Alkaloids from the leaves of Uncaria rhynchophylla and their inhibitory activity on NO production in lipopolysaccharide-activated microglia” (J Nat Prod, 2008).
Activity calls are given as the source filed them. The rule behind the calls is not given here.

Legend:
[1] = Inhibition of LPS-stimulated NO release in rat cortical microglial cells assessed as nitrite accumulation at 100 ug/ml after 48 hrs relative to LPS; type: functional; details: Microglia, values are per cent of control
Microglia [2] = assay: Cell viability of LPS-stimulated rat cortical microglial cells after 48 hrs by MTT assay; type: functional, cell-based
[3] = Inhibition of LPS-stimulated NO release in rat cortical microglial cells assessed as nitrite accumulation after 48 hrs; type: functional; details: Microglia
Microglia [4] = assay: Cell viability of rat cortical microglial cells after 48 hrs by MTT assay; type: functional, cell-based
[5] = Inhibition of LPS-stimulated NO release in rat cortical microglial cells assessed as nitrite accumulation at 1 ug/ml after 48 hrs relative to LPS; type: functional; details: Microglia, values are per cent of control
[6] = Inhibition of LPS-stimulated NO release in rat cortical microglial cells assessed as nitrite accumulation at 10 ug/ml after 48 hrs relative to LPS; type: functional; details: Microglia, values are per cent of control
[7] = Inhibition of LPS-stimulated NO release in rat cortical microglial cells assessed as nitrite accumulation at 3 uM after 48 hrs relative to LPS; type: functional; details: Microglia, values are per cent of control
[8] = Inhibition of NO release in LPS-stimulated rat cortical microglial cells assessed as nitrite accumulation at 30 uM after 48 hrs relative to LPS; type: functional; details: Microglia, values are per cent of control

| SMILES | response, % of control at 100 µg/mL [1] | Activity (Microglia [2]) | IC50 [3] | Activity (Microglia [4]) | response, % of control at 1 µg/mL [5] | response, % of control at 10 µg/mL [6] | response, % of control at 3 µM [7] | response, % of control at 30 µM [8] |
| --- | --- | --- | --- | --- | --- | --- | --- | --- |
| C=C[C@H]1CN2CC[C@@]3(C(=O)Nc4ccccc43)[C@@H]2C[C@@H]1/C(=C\OC)C(=O)OC [ISOCORYNOXEINE] | 40.5% | inactive | 13.7 µM | inactive | 92.2% | 73.2% | – | – |
| CC[C@H]1CN2CC[C@]3(C(=O)Nc4ccccc43)[C@@H]2C[C@@H]1/C(=C\OC)C(=O)OC [RHYNCHOPHYLLINE] | 35.9% | inactive | 18.5 µM | inactive | 106% | 75.8% | – | – |
| C=C[C@@H]1CN2CC[C@@]3(C(=O)Nc4ccccc43)[C@@H]2C[C@@H]1/C(=C\OC)C(=O)O | 92.7% | inactive | > 100 µM | inactive | 98.8% | 107% | – | – |
| C=C[C@@H]1CN2CC[C@]3(C(=O)Nc4ccccc43)[C@@H]2C[C@@H]1/C(=C\OC)C(=O)O [18,19-DEHYDROCORYNOXINIC ACID B] | 88.9% | inactive | > 100 µM | inactive | 81.9% | 84.2% | – | – |
| CC[C@H]1CN2CC[C@@]3(C(=O)Nc4ccccc43)[C@@H]2C[C@@H]1/C(=C\OC)C(=O)OC [ISORHYNCHOPHYLLINE] | 42.1% | inactive | 19 µM | inactive | 95.2% | 76.9% | – | – |
| C=C[C@H]1C(O[C@@H]2O[C@H](CO)[C@@H](O)[C@H](O)[C@H]2O)OC=C2C(=O)N3CCc4c([nH]c5ccccc45)[C@@H]3C[C@H]21 (stereo partly specified) [VINCOSIDE LACTAM] | 38.6% | inactive | 16.4 µM | inactive | 71.8% | 65.7% | – | – |
| C=C[C@H]1CN2CC[C@]3(C(=O)Nc4ccccc43)[C@@H]2C[C@@H]1/C(=C\OC)C(=O)OC [CORYNOXEINE] | 37.9% | inactive | 15.7 µM | inactive | 86.9% | 74.5% | – | – |
| Oc1ccc(/C=C/c2cc(O)cc(O)c2)cc1 [RESVERATROL] | – | – | 11.5 µM | – | – | 72.4% | 92% | 43.4% |
